Laboratory results: ChEMBL document CHEMBL3638446, “Quinoxaline inhibitors of phosphoinositide-3-kinases (PI3Ks)” (2013)
pIC50: −log10 of the molar value.

Molecular target: Phosphatidylinositol 4,5-bisphosphate 3-kinase catalytic subunit gamma isoform (Homo sapiens, UniProt P48736)
Assay: Biological Assay: The assay combines the scintillation proximity assay technology (SPA, Amersham) with the capacity of neomycin (a polycationic antibiotic) to bind phospholipids with high affinity and specificity. The Scintillation Proximity Assay is based on the properties of weakly emitting isotopes (such as 3H, 125I, 33P). Coating SPA beads with neomycin allows the detection of phosphorylated lipid substrates after incubation with recombinant PI3K and radioactive ATP in the same well, by capturing the radioactive phospholipids to the SPA beads through their specific binding to neomycin.

Chain of Phosphatidylinositol 4,5-bisphosphate 3-kinase catalytic subunit gamma isoform (P48736 whole entry, canonical isoform): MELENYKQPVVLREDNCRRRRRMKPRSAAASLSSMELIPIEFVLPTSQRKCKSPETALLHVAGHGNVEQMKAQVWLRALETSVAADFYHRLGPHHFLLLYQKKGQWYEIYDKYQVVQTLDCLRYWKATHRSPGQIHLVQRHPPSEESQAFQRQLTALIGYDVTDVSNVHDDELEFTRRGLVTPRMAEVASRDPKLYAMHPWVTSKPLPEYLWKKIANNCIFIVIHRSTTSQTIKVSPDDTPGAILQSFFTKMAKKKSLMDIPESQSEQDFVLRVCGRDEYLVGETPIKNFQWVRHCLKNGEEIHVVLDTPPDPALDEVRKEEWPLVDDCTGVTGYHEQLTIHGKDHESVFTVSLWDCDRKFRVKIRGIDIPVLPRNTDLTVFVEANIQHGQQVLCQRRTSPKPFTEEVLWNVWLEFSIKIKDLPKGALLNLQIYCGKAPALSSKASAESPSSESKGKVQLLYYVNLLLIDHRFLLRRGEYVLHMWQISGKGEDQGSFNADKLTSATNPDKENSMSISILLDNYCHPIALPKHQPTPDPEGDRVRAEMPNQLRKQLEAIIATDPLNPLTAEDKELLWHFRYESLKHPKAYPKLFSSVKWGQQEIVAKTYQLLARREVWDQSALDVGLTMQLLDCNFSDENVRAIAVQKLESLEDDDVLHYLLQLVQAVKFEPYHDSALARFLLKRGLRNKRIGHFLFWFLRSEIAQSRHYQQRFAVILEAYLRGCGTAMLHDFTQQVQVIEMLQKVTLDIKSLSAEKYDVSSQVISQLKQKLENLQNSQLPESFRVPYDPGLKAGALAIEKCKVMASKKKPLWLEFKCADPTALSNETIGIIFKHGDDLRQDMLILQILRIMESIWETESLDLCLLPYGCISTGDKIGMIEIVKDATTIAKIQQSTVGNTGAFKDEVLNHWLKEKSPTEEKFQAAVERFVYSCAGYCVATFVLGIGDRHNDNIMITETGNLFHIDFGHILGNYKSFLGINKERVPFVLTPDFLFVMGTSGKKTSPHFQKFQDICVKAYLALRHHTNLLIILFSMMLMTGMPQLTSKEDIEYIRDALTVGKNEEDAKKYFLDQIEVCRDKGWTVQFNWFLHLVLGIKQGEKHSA

COc1ccc(CC2CCOCC2)c(Nc2nc3ccccc3nc2NS(=O)(=O)c2ccc(CN(C)C)cc2)c1
pIC50: 7.52
